The source of these data is patent US4559348A, “5- And/or 7-substituted pyrazolo-[4,3-b]-pyridines and their use as antiinflammatory agents” (Beecham Group, p.l.c., priority 1983, dated 1985).

Structures are written as SMILES.

Assay [1] in a line: Croton Oil Test (topical anti-inflammatory activity). The assay is classed as in vivo, rat (Charles River Wistar). Particulars: 1 mg/ear, 6 hours. The procedure: Compounds were tested for anti-inflammatory activity in a topical model based on that described by Fregnan G. B. and Torsello, A. L. (1975), Current Therapeutic Research 17, No. 4, 375-381. In outline the method is as follows:
Rats, Charles River Wistar Strain, female, 10/group. Weight range 200-240 g.
Irritant solution applied consists of 1% croton oil in tetrahydrofuran. 0.05 ml is placed on each ear, compound being included in the irritant solution on one ear. 6 hours later the ears are removed by cutting along the hairline and weighed.
-ve control--no irritant solution.
+ve control--irritant solution on both ears.

The nature of assay [2]: Carrageenin Test (paw volume). The assay is classed as in vivo, rat (OLAC Wistar). The settings on record: 3 hours after carrageenin. The method, then:
Groups of 8 OLAC Wistar male rats (140-170 g) received the Compounds orally 1 hour before 0.1 ml of 0.5% λ carrageenin injected into the right hind paw. Paw volumes were measured by mercury displacement 3 hours after carrageenin.
Background: In the carrageenan paw model, swelling and tenderness develop within hours.

Assay [3] can be described thus: Quinone Quantal Writhing Test (analgesic activity). The assay is classed as in vivo. The settings on record: 50 mg/kg po. The procedure:
L. C. Hendershot and J. Fersaith, J. Pharmac. exp. Therap. 1959, 125, 237-240.
Compounds 1 and 2 had analgesic activity giving 10 and 50 percent inhibition respectively at a dose of 50 mg/kg po.

Assay [4] in a line: Mouse Oxazolone Screen (topical anti-inflammatory activity). The format is in vivo. The settings on record: 24 hr after challenge; for inhibition in vivo at 200 µg/ear: 200 μg/ear; for inhibition in vivo at 100 µg/ear: 100 μg/ear. The procedure: Compounds were tested for topical anti-inflammatory activity in a mouse oxazolone screen, by a method modified from that of Dietrich and Hess [Int. Arch. Allergy, 38, 246 (1970)].
Mice were sensitised with oxazolone (2 mg in EtOH) on a shaved area of the abdomen, and then challenged with oxazolone (100 μg) with or without the test compound on the left ear 5 days later.

Assay [5] is described as follows: Rat Cantharidin Screen (topical anti-inflammatory activity). The format is in vivo. Particulars: 72 hrs. The method, then:
Compounds were tested for topical anti-inflammatory activity in a cantharidin rat ear screen, by a method described by A. Boris et al, [J. Invest. Dermatol. 68, 161 (1977)].
Cantharidin (450 μg) in a suitable solvent, such as methanol or tetrahydrofuran applied topically to one rat ear, causes severe inflammation giving approximately double the normal weight at 72 hrs. compared to the other, untreated ear. The test compounds were applied simultaneously with cantharidin in tetrahydrofuran.

The conditions of assay [6]: in mice; cited from earlier work.

On to `c1cc2[nH]ncc2nc1N1CCCCC1` [Compound 1, 5-Piperidino-1H-pyrazolo(4,3-b)pyridine], for which the “% Inhibition” value in assay [1] is reported as 32.9%; in assay [2] (88 mg/kg orally), 34%. In addition, the “percent inhibition (analgesic activity)” value in assay [3] is on record as 10%. Consider `Cc1cc(N2CCCCC2)c2[nH]ncc2n1` [Compound 2, 5-Methyl-7-piperidino-1H-pyrazolo(4,3-b)pyridine], for which the “% Inhibition” value in assay [1] is reported as 34.8%; in assay [2] (81 mg/kg orally), 41.7%. Also, the “percent inhibition (analgesic activity)” value in assay [3] was found to be 50%. Turning to `Cc1ccc(Sc2cc(C)nc3cn[nH]c23)cc1` [Compound 3, 5-Methyl-7-(p-tolythio)-1H-pyrazolo(4,3-b)pyridine], the inhibition in vivo at 200 µg/ear in assay [4] came to 37%. As to `Cc1cc(Nc2ccccc2)c2[nH]ncc2n1` [Compound 4, 7-Anilino-5-methyl-1H-pyrazolo(4,3-b)pyridine], the “% Inhibition” value in assay [1] is recorded as 71.7%; in assay [2] (75 mg/kg orally) it was 40.2%. In assay [5], the inhibition in vivo at 1 mg/ear was determined as 42%. For the same compound, in assay [4], the inhibition in vivo at 200 µg/ear is 81%. Compound `Cc1cc(Nc2ccccc2)c2nn(C)cc2n1` [Compound 5, 7-Anilino-2,5-dimethyl-2H-pyrazolo(4,3-b)pyridine] displayed an inhibition in vivo at 2 mg/ear in assay [5] of 44%. In assay [4], this compound gave an inhibition in vivo at 200 µg/ear of 63%.

In assay [5], `CCOc1ccc(Nc2cc(C)nc3cn[nH]c23)cc1` [Compound 7, 7-(4-Ethoxyanilino)-5-methyl-1H-pyrazolo[4,3-b]pyridine] came in with an inhibition in vivo at 2 mg/ear of 25%. The inhibition in vivo at 100 µg/ear in assay [4] was 56%. As to `Cc1cc(Nc2ccccc2C)c2[nH]ncc2n1` [Compound 8, 7-(2-Methylanilino)-5-methyl-1H-pyrazolo[4,3-b]pyridine], the inhibition in vivo at 0.9 mg/ear in assay [5] (0.9 mg/ear) is 56%. In assay [4], this compound had an inhibition in vivo at 100 µg/ear of 31%.

Compound `Cc1cc(Sc2ccccc2)c2[nH]ncc2n1` [Compound 9, 5-Methyl-7-phenylthio-1H-pyrazolo[4,3-b]pyridine] gave an inhibition in vivo at 1 mg/ear in assay [5] of 40%. Moreover, the inhibition in vivo at 100 µg/ear in assay [4] was 61%.

In assay [5] (0.5 mg/ear), `CCCCNc1cc(C)nc2cn[nH]c12` [Compound 10, 7-n-Butylamino-5-methyl-1H-pyrazolo[4,3-b]pyridine] yielded an inhibition in vivo at 0.5 mg/ear of 76%. This compound had an inhibition in vivo at 100 µg/ear in assay [4] of 54%. Take `Cc1cc(NC2CCCCC2)c2[nH]ncc2n1` [Compound 11, 7-Cyclohexylamino-5-methyl-1H-pyrazolo[4,3-b]pyridine]: the inhibition in vivo at 1 mg/ear in assay [5] stood at 66%. `CCOc1cccc(Nc2cc(C)nc3cn[nH]c23)c1` [Compound 12, 7-(3-Ethoxyanilino)-5-methyl-1H-pyrazolo[4,3-b]pyridine] came in with an inhibition in vivo at 1 mg/ear in assay [5] of 41%.

For the compound `Cc1cc(Nc2ccc(Cl)cc2)c2[nH]ncc2n1` [Compound 14, 7-(4-Chloroanilino)-5-methyl-1H-pyrazolo[4,3-b]pyridine], in assay [5], the inhibition in vivo at 2 mg/ear is 27%. In assay [5], `COc1ccc(Nc2cc(C)nc3cn[nH]c23)cc1` [Compound 15, 7-(4-Methoxyanilino)-5-methyl-1H-pyrazolo[4,3-b]pyridine] came in with an inhibition in vivo at 1 mg/ear of 41%. Compound `Cc1cc(N(C)c2ccccc2)c2[nH]ncc2n1` [Compound 17, 7-(N-Methylanilino)-5-methyl-1H-pyrazolo[4,3-b]pyridine] gave an inhibition in vivo at 1 mg/ear in assay [5] of 31%. Also, the inhibition in vivo at 100 µg/ear in assay [4] was 32%.

Regarding `c1ccc(Nc2ccnc3cn[nH]c23)cc1` [Compound 19, 7-Anilino-1H-pyrazolo[4,3-b]pyridine], the inhibition in vivo at 1 mg/ear in assay [5] was 50%.

On to `Cc1cc(Nc2ccc(C(C)(C)C)cc2)c2[nH]ncc2n1` [Compound 22, 5-Methyl-7-p-t-butylanilino-1H-pyrazolo[4,3-b]pyridine], for which the inhibition in vivo at 1 mg/ear in assay [5] came to 68%.

In assay [5], `Cc1cc(Nc2ccc(Cl)c(Cl)c2)c2[nH]ncc2n1` [Compound 24, 7-(3,4-Dichloroanilino)-5-methyl-1H-pyrazolo[4,3-b]pyridine] came in with an inhibition in vivo at 1 mg/ear of 29%. On to `CC(=O)N(C(C)=O)c1cc(C)nc2c(C)n[nH]c12` [The compound wherein R is NAc2], for which the CNS antidepressant activity result in assay [6] is recorded as “having CNS antidepressant activity”.

Usually % Inhibition stands for the drop in the measured response relative to a control, in per cent. Read a high % Inhibition as a strong effect. In general, inhibition in vivo refers to the percentage by which the read-out fell short of the control. The low end stands for a weak effect, the high end for a strong effect.
